Experimental data taken from publication PMC2365028, “Transepithelial Transport and Metabolism of Boronated Dipeptides Across Caco-2 and HCT-8 Cell Monolayers” (Metal-Based Drugs, 1996).
“And” between values parts separate entries of the source, which are not always exact repeats. Equal entries are not always repeated.

Columns and labels:
Caco-2 cell monolayers [1] = assay: Apical-to-basal transport and metabolism across Caco-2 cell monolayers (Transwell); settings: for % Mass Balance / % Mass Transported / % Mass in Apical Side / Pseudo first-order rate constant k + SD / Apparent permeability coefficient Pe + SD / % Ester in the basal compartment / % FA (corresponding free acid) in the basal compartment: 4 h; for % Ester in the basal compartment / % FA (corresponding free acid) in the basal compartment: Table 9, side-by-side experiment; for mode of transport across the monolayer / compound recovered after transport through Caco-2 cell monolayers: apical-to-basal; for recovery after quantitating the free acids at the conclusion of transport experiments: ester plus free acid
Source text: (§1) TRANSEPITHELIAL TRANSPORT AND METABOLISM OF BORONATED DIPEPTIDES ACROSS CACO-2 AND HCT-8 CELL MONOLAYERS Amy L. Elkins,John G. Eley,3, Merrill C. […] This study examined the effect of boronation on the transepithelial transport and metabolism of three glycine-phenylalanine dipeptides in Caco-2 and HCT-8 cell monolayers. […] Oral delivery of proteins and peptides as therapeutic agents is problematic due to their low bioavailability. This is mainly due to both their poor permeability across cellular barriers and to enzymatic degradation that occurs in the gut lumen, brush border, and enterocyte cytoplasm (2). […] Such as a substitution may also have the potential to alter the in vivo bioavailability of dipeptides. […] This study was undertaken to determine the effect of boronation on the transepithelial transport and metabolism of three glycine-phenylalanine dipeptides. […] Caco-2 cells are human colon adenocarcinoma cells first isolated from a primary colonic tumor (4). The cell line undergoes spontaneous enterortic differentiation in culture after reaching cotfflucnce, and morphologically resembles small intestinal epitheliun after three xveeks in culture (5). These morphological characteristics include the development of a brush border region expressing microvilli, occluding junctions, dome formations, and the formation of tight junctions leading to cell polarity. […] The cell line expresses a dipeptide carrier transport system in both the apical and basal membranes (9-10). […] HCT-8 cells are human adenocarcinoma cells from the ileocecal region; as such, these cells may give a truer reflection of gut absorption compared to Caco-2 cells which are derived from the colonic region. The cells produce a polarized differentiated monolayer consisting of enterocyte-like columnar cells that are interconnected by mature tightjunctions and desmosomes and exposed microvilla (11). The structural and functional integrity of the tight junctions of cells grown on polyester filter cups (Falcon, BD) and membrane filter inserts (Transwell(R), Costar) have been confirmed by transmission electron microscopy, transepithelial electrical resistance measurements, and transport of impermeant markers such as mannitol and polyethylene glycol (11, 12). […] Compound//was donated by Boron Biologicals, Inc., Raleigh, NC. Compound 111 was synthesized as follows: L-phenylalanine methyl ester hydrochloride (2.09 g, 9.7 mmol) and dimethylglycine (1 g, 9.7 retool) xvere suspended in 30 ml dry tetrahydrofuran with 10 mmol of triethylamine, dicyclohexyl-carbodiinfide and hydrox3'benzotriazole. The reaction was stirred at room temperature for 48 hours under nitrogen and the solvent was removed under reduced pressure. The product was purified on silica gel, two void volumes of hexane, two void volumes hexane/ethanol (8'1), and then hexane/ethanol (5:1). […] For the transport studies, cells were diluted with growth medium to give a total of […] cells/cm in 1.5 mls. The 1.5 ntis was placed in the apical compartment of a Transwcll(R) (Costar). The Transxvell(R) system is a 6-well plate with each well having an apical compartment capacity of 1.5 ntis, a basal compartment capacity of 2.5 ntis, and a 4.71 cm polycarbonate microporous (0.45 gin) membrane separating the two compartments. Cell monolayers in the Transwell(R) were allowed to grow for 21 days while the medium was replaced every 3 days. The cells were grown in Dulbecco's Modified Eagle Medium (D-MEM) containing L-glutamine and sodium pyruvate at 37C under 5% CO-. and saturated humidity. Additives to the medium included 10% heat- inactivated fetal bovine serum, 10 mM nonessential amino acids, 100 units of penicillin and 100 mg of streptomycin per ml of medium. 278 A.L. Elkins, J.G. Eley, M.C.

[2] = 0.01N NaOH, 37C, 6 hours
HCT-8 cell monolayers = assay: Apical-to-basal transport across HCT-8 cell monolayers (Transwell)
Source text: as §1, with “The cells were grown in Dulbecco's Modified Eagle Medium (D-MEM) containing L-glutamine and sodium pyruvate at 37C under 5% CO-. and saturated humidity. Additives to the medium included 10% heat- inactivated fetal bovine serum, 10 mM nonessential amino acids, 100 units of penicillin and 100 mg of streptomycin per ml of medium. 278 A.L. Elkins, J.G. Eley, M.C.” left out

Caco-2 cell monolayers [3] = assay: Basal-to-apical transport across Caco-2 cell monolayers; settings: basal-to-apical
Source text: TRANSEPITHELIAL TRANSPORT AND METABOLISM OF BORONATED DIPEPTIDES ACROSS CACO-2 AND HCT-8 CELL MONOLAYERS Amy L. Elkins,John G. Eley,3, Merrill C. […] This study examined the effect of boronation on the transepithelial transport and metabolism of three glycine-phenylalanine dipeptides in Caco-2 and HCT-8 cell monolayers. […] Oral delivery of proteins and peptides as therapeutic agents is problematic due to their low bioavailability. This is mainly due to both their poor permeability across cellular barriers and to enzymatic degradation that occurs in the gut lumen, brush border, and enterocyte cytoplasm (2). […] Such as a substitution may also have the potential to alter the in vivo bioavailability of dipeptides. […] This study was undertaken to determine the effect of boronation on the transepithelial transport and metabolism of three glycine-phenylalanine dipeptides. […] Caco-2 cells are human colon adenocarcinoma cells first isolated from a primary colonic tumor (4). The cell line undergoes spontaneous enterortic differentiation in culture after reaching cotfflucnce, and morphologically resembles small intestinal epitheliun after three xveeks in culture (5). These morphological characteristics include the development of a brush border region expressing microvilli, occluding junctions, dome formations, and the formation of tight junctions leading to cell polarity. […]

[4] = test system: various murine and human tissue cultured cancer cells; settings: cited from earlier work
[5] = Stability in HBSS/HEPES buffer and apical/basal media without the Transwell system; type: physicochemical; settings: HBSS/HEPES buffer pH 7.4, 37C, or apical and basal media
[6] = Table 1, 37C static, initial concentration 0.75 mM
[7] = Table 1, 37C static, initial concentration 1.0 mM
[8] = Table 1, 37C static, initial concentration 2.5 mM
[9] = Table 1, 37C static, initial concentration 5.0 mM
[10] = Table 1, 37C static, initial concentration 7.5 mM
[11] = Table 2, 37C static, initial concentration 1.0 mM
[12] = Table 2, 37C static, initial concentration 5.0 mM (fourth row)
[13] = Table 2, 37C static, initial concentration 7.5 mM
[14] = Table 10, 37C static, 4 h, initial concentration 0.75 mM

COC(=O)[C@H](Cc1ccccc1)NC(=O)[BH2-][N+](C)(C)C [Compound I, N-[(trimethylamine-boryl)-carbonyl]-L-phenylalanine methyl ester]
% Mass Balance (Caco-2 cell monolayers [1]; [6]): 63.8% | % Mass Transported (Caco-2 cell monolayers [1]; [6]): 62.2% | % Mass in Apical Side (Caco-2 cell monolayers [1]; [6]): 1.6% | % Mass Balance (Caco-2 cell monolayers [1]; [7]): 67.8% | % Mass Transported (Caco-2 cell monolayers [1]; [7]): 60.0% | % Mass in Apical Side (Caco-2 cell monolayers [1]; [7]): 7.8% | % Mass Balance (Caco-2 cell monolayers [1]; [8]): 73.0% | % Mass Transported (Caco-2 cell monolayers [1]; [8]): 64.0% | % Mass in Apical Side (Caco-2 cell monolayers [1]; [8]): 9.0% | % Mass Balance (Caco-2 cell monolayers [1]; [9]): 71.0% | % Mass Transported (Caco-2 cell monolayers [1]; [9]): 62.7% | % Mass in Apical Side (Caco-2 cell monolayers [1]; [9]): 8.3% | % Mass Balance (Caco-2 cell monolayers [1]; [10]): 74.6% | % Mass Transported (Caco-2 cell monolayers [1]; [10]): 66.7% | Mass Transported (collected in the basal medium after 4 hours) (Caco-2 cell monolayers [1]; [7]): 0.90 | Mass Transported (collected in the basal medium after 4 hours) (Caco-2 cell monolayers [1]; [8]): 2.4 | Mass Transported (collected in the basal medium after 4 hours) (Caco-2 cell monolayers [1]; [9]): 4.7 | Mass Transported (collected in the basal medium after 4 hours) (Caco-2 cell monolayers [1]; [10]): 7.5 | Pseudo first-order rate constant k + SD (Caco-2 cell monolayers [1]; Table 2, 37C static, initial concentration 0.75 mM): 1.76 + 0.06 x 104/sec | Apparent permeability coefficient Pe + SD (Caco-2 cell monolayers [1]; [11]): 35.1 ×10⁻⁶ cm/s | Pseudo first-order rate constant k + SD (Caco-2 cell monolayers [1]; [11]): 1.70 + 0.08 x 104/sec | Apparent permeability coefficient Pe + SD (Caco-2 cell monolayers [1]; Table 2, 37C static, initial concentration 2.5 mM): 37.5 ×10⁻⁶ cm/s | Apparent permeability coefficient Pe + SD (Caco-2 cell monolayers [1]; [12]): 32 ×10⁻⁶ cm/s | Pseudo first-order rate constant k + SD (Caco-2 cell monolayers [1]; [12]): 1.35 + 0.17 x 104/sec | Apparent permeability coefficient Pe + SD (Caco-2 cell monolayers [1]; [13]): 37.5 ×10⁻⁶ cm/s | Pseudo first-order rate constant k + SD (Caco-2 cell monolayers [1]; [13]): 1.56 + 0.11 x 104/sec | % Mass Balance (Caco-2 cell monolayers [1]; Table 3, 2.5 mM, 4C Rocking): 89.3% | % Mass Transported (Caco-2 cell monolayers [1]; Table 3, 2.5 mM, 4C Rocking): 48.6% | % Mass in Apical Side (Caco-2 cell monolayers [1]; Table 3, 2.5 mM, 4C Rocking): 40.7% | % Mass in Apical Side (Caco-2 cell monolayers [1]; Table 3, 2.5 mM, 37C Rocking): 2% | % Mass Balance (Caco-2 cell monolayers [1]; Table 3, 2.5 mM, 37C Static): 73.1% | % Mass Transported (Caco-2 cell monolayers [1]; Table 3, 2.5 mM, 37C Static): 56.9% | Mass Transported (collected in the basal medium after 4 hours) (Caco-2 cell monolayers [1]; Table 3, initial concentration 2.5 mM, 4C Rocking): 1.8 | Mass Transported (collected in the basal medium after 4 hours) (Caco-2 cell monolayers [1]; Table 3, initial concentration 2.5 mM, 37C Rocking): 3.0 | Mass Transported (collected in the basal medium after 4 hours) (Caco-2 cell monolayers [1]; Table 3, initial concentration 2.5 mM, 37C Static): 2.1 | Pseudo first-order rate constant k + SD (Caco-2 cell monolayers [1]; Table 4, 2.5 mM, 37C Rocking): 3.54 + 0.06 x 104/sec | Pseudo first-order rate constant k + SD (Caco-2 cell monolayers [1]; Table 4, 2.5 mM, 37C Static): 1.03 + 0.06 x 104/sec | % Ester in the basal compartment (Caco-2 cell monolayers [1]; 4C Rocking): 74.0% | % FA (corresponding free acid) in the basal compartment (Caco-2 cell monolayers [1]; 4C Rocking): none | % Ester in the basal compartment (Caco-2 cell monolayers [1]; 4C Static): 61.8% | % FA (corresponding free acid) in the basal compartment (Caco-2 cell monolayers [1]; 4C Static): none | % Ester in the basal compartment (Caco-2 cell monolayers [1]; 37C Static): 44.4% and 44% | % FA (corresponding free acid) in the basal compartment (Caco-2 cell monolayers [1]; 37C Static): 44.4% and 44% | mode of transport across the monolayer (Caco-2 cell monolayers [1]): passive diffusion | compound recovered after transport through Caco-2 cell monolayers (Caco-2 cell monolayers [1]; 4 hours): Approximately 70% | recovery after quantitating the free acids at the conclusion of transport experiments (Caco-2 cell monolayers [1]): 100% | ester remaining in the apical compartment (Caco-2 cell monolayers [1]; side-by-side experiment, 37C static, 4 hours): none | ester degradation to the free acid [2]: all ofthe ester was degraded | unaccounted for as the ester or the respective free acid (HCT-8 cell monolayers; HCT-8 cell monolayers): ~45% | % Mass Balance (HCT-8 cell monolayers; [14]): 88.2% | % Mass Transported (HCT-8 cell monolayers; [14]): 77.3% | % Mass in Apical Side (HCT-8 cell monolayers; [14]): 10.9% | Mass Transported (collected in the basal medium after 4 hours) (HCT-8 cell monolayers; Table 10, 37C static, initial concentration 0.75 mM): 0.87 | recovery in basal-to-apical transport experiments (Caco-2 cell monolayers [3]): 100% | cytotoxicity [4]: potent | % of the original ester at 25 hours [5]: 96%

COC(=O)[C@H](Cc1ccccc1)NC(=O)[BH2-][NH+](C)C [Compound II, N-[(dimethylamine-boryl)-carbonyl]-L-phenylalanine methyl ester]
% Mass Balance (Caco-2 cell monolayers [1]; Table 5, 4C Rocking): 81.8% | % Mass Transported (Caco-2 cell monolayers [1]; Table 5, 4C Rocking): 37.3% | % Mass in Apical Side (Caco-2 cell monolayers [1]; Table 5, 4C Rocking): 44.5% | % Mass Balance (Caco-2 cell monolayers [1]; Table 5, 4C Static): 79.9% | % Mass Transported (Caco-2 cell monolayers [1]; Table 5, 4C Static): 39.3% | % Mass in Apical Side (Caco-2 cell monolayers [1]; Table 5, 4C Static): 40.6% | % Mass Balance (Caco-2 cell monolayers [1]; Table 5, 37C Static): 57.7% | % Mass Transported (Caco-2 cell monolayers [1]; Table 5, 37C Static): 52.7% | % Mass in Apical Side (Caco-2 cell monolayers [1]; Table 5, 37C Static): 5.0% | Mass Transported (collected in the basal medium after 4 hours) (Caco-2 cell monolayers [1]; Table 5, initial concentration figure not printed (mM), 4C Rocking): 0.56 | Mass Transported (collected in the basal medium after 4 hours) (Caco-2 cell monolayers [1]; Table 5, initial concentration figure not printed (mM), 4C Static): 0.59 | Mass Transported (collected in the basal medium after 4 hours) (Caco-2 cell monolayers [1]; Table 5, initial concentration figure not printed (mM), 37C Static): 0.79 | Apparent permeability coefficient Pe + SD (Caco-2 cell monolayers [1]; Table 6, 37C Rocking): 48 ×10⁻⁶ cm/s | Pseudo first-order rate constant k + SD (Caco-2 cell monolayers [1]; Table 6, 37C Rocking): 2.8 + 0.22 x 104/sec | % Ester in the basal compartment (Caco-2 cell monolayers [1]; 4C Rocking): 55.5% | % FA (corresponding free acid) in the basal compartment (Caco-2 cell monolayers [1]; 4C Rocking): inhibited | % Ester in the basal compartment (Caco-2 cell monolayers [1]; 4C Static): 59.4% | % FA (corresponding free acid) in the basal compartment (Caco-2 cell monolayers [1]; 4C Static): inhibited | % Ester in the basal compartment (Caco-2 cell monolayers [1]; 37C Static): 48.6% and 49% | % FA (corresponding free acid) in the basal compartment (Caco-2 cell monolayers [1]; 37C Static): 51.5% and 52% | mode of transport across the monolayer (Caco-2 cell monolayers [1]): passive diffusion | compound recovered after transport through Caco-2 cell monolayers (Caco-2 cell monolayers [1]; 4 hours): 58% | recovery after quantitating the free acids at the conclusion of transport experiments (Caco-2 cell monolayers [1]): 100% | % of the original ester at 25 hours [5]: 90%
